In patent publication US20190364891A1, “Chemical Compositions for Combating Honey Bee Pests and Pathogens” (Fort Lewis College, priority 2018, published 2019):

What was measured:
Varroa mites [1] = experiment: whole plant or invertebrate; details: for mite mortality: 24 h; for statistically significant mite mortality (Kruskal-Wallis): at 24 h, 100 mg/mL, 250 mg/mL, 1 g/mL tested, 15, 30 or 45 min exposure
Method: Efficacy of 12 caffeic and ferulic acid/ester molecules (caffeic acid, ferulic acid, caffeic acid cinnamyl ester, caffeic acid phenethyl ester, caffeic acid 3-methyl-3-butenyl ester, caffeic acid 3-methyl-2-butenyl ester, caffeic acid benzyl ester, ferulic acid cinnamyl ester, ferulic acid phenethyl ester, ferulic acid 3-methyl-3-butenyl ester, ferulic acid 3-methyl-2-butenyl ester, ferulic acid benzyl ester) against Varroa mites in a laboratory assay was determined. Adult female mites were collected from a single honey bee colony by uncapping drone cells and removing the mites to avoid injury that might occur if other methods (e.g., sugar shake) were used. Mites lacking vigor were discarded prior to experiment. Varroa were removed from single-age pupae, randomized, and placed in groups of ten in a sealed chamber. They were left in an incubator with pupae. After a set amount of time, the Varroa were transferred to a chamber with a potential miticide. The effects of each miticide were evaluated both through contact and through vapor. Concentrations and contact time were also evaluated. The Varroa were then transferred back to their chamber in the incubator and checked for mortality (each experiment in triplicate). […] Treatments were tested for their efficacy in repelling and killing mites.
To test for contact-phase miticidal activity, 250 μl of each treatment was evenly applied to a Whatman No. 4 filter paper in a Petri dish. The paper was allowed to completely dry before the assay and then it was adhered to the bottom of the dish. Ten mites per treatment were placed directly on the filter paper and the mites were kept in the dish for either 15 min, 30 min, or 45 min. After the initial time period, all mites were transferred into a sterile Petri dish and maintained in an incubator for 30 h. Each hour the mites were removed and observed under a dissecting lens. Each treatment concentration and exposure period was repeated three times.
Statistical analysis for repellency was conducted on the mean number of mites repelled and was compared by a two-way ANOVA. […] Percent mortality was compared between treatments by a non-parametric Kruskal-Wallis test.

Varroa mites [2] = experiment: Example 2: mites exposed to filter paper impregnated with the caffeic ester family, mite mortality and activity; design: species or system Varroa destructor; details: assessed 6 h, 24 h, 30 h post exposure; various concentrations and exposure times
Method: In a series of assays, Whatman filter paper was impregnated with various concentrations of the caffeic ester family of molecules. Varroa mites were freshly harvested from brood frames and then directly exposed to the substrate. The exposure time was varied across different experiments. The Varroa mites were removed and placed into an incubator with pupae to feed on. Mite mortality and mite activity was assessed at several time points (6 h, 24 h, 30 h) post exposure.

| SMILES | mite mortality (Varroa mites [1]) | statistically significant mite mortality (Kruskal-Wallis) (Varroa mites [1]) | further results |
| --- | --- | --- | --- |
| O=C(/C=C/c1ccc(O)c(O)c1)OCC=Cc1ccccc1 [caffeic acid cinnamyl ester] | over 60% | – | – |
| Cc1ccc(C(C)C)c(O)c1 [thymol, reference compound] | – | – | mortality at 100000 µg/mL (Varroa mites [1]; Varroa destructor, 6 h, read-out: mortality (positive control)): 100% |
| COc1cc(/C=C/C(=O)O)ccc1O [ferulic acid] | – | all of the molecules except caffeic acid and ferulic acid showed statistically significant mite mortality | – |
| O=C(/C=C/c1ccc(O)c(O)c1)OCCc1ccccc1 [caffeic acid phenethyl ester] | – | – | relative efficacy (mite mortality and activity) (Varroa mites [2]): most efficacious molecule tested |
| COc1cc(/C=C/C(=O)OCC=C(C)C)ccc1O [ferulic acid 3-methyl-2-butenyl ester] | over 60% | – | – |
| O=C(O)/C=C/c1ccc(O)c(O)c1 [caffeic acid] | – | all of the molecules except caffeic acid and ferulic acid showed statistically significant mite mortality | – |
